{
  "source": "patent US11980658B2",
  "about": "“Immunotherapeutic molecules and uses thereof” (priority 2012, dated 2024)",
  "assay_type_in_all_cases": "cell-based, human",
  "key": {"[1]": {"test_system": "Ara h 1-specific CD4+ T-cell lines (TCL)", "assay": "Antigen-induced TCL proliferation, 3H-thymidine uptake assay", "conditions": "for Donor responder frequency for TCL recognition of Ara h 1 20-mer peptides: n=18 peanut-allergic subjects, SI≥2.5", "text": "Ara h 1-specific oligoclonal TCL were generated from peripheral blood mononuclear cells (PBMC) of peanut-allergic subjects using 5,6-carboxyfluorescein diacetate succinimidylester (CFSE)-based methodology (Mannering et al. J Immunol Methods. 2005; 298(1-2):83-92) as described (Prickett et al. 2011 supra), with CPE ([…]), Ara h 1 (10 gg/mL) or 20-mer peptides spanning the Ara h 1 sequence (11 amino acid (aa) overlap (17 aa overlap for the last peptide); Table 5; 10 pg/mL/peptide) as the driving antigens. All TCL were tested for specificity (proliferation) to individual Ara h 1 20-mers (10 pg/mL) as well as CPE ([…]) and/or Ara h 1 (10 pg/mL) Core epitope sequences were mapped within selected 20-mers using peptide sets truncated from the N- or C-terminus of the 20-mer as described (Prickett et al. 2011 supra).\n(§1) All culturing was performed in RPMI-1640 containing 2 mM L-glutamine, 100 IU/mL penicillin-streptomycin and 5% heat-inactivated human AB serum (Sigma-Aldrich, St Louis, USA) (cRPMI). Antigen-induced TCL proliferation was assessed by ^3H-thymidine (3H-TdR) uptake assays as described (Prickett et al. 2011 supra). A stimulation index (SI; cpm antigen-stimulated T cells/cpm unstimulated T cells) >2.5 was considered positive and all positive responses confirmed in >2 assays. HLA-restriction of epitope recognition by TCL was assessed using monoclonal antibodies (mAb) against HLA-DR (L243), HLA-DQ (SVP-L3) or HLA-DP (B7/21) to block epitope presentation as described (Prickett et al. 2011 supra). To allow detection of peptide-induced CD4+ T-cell proliferation within whole PBMC, 7-day cultures of CFSE-labelled PBMC were set up as described for TCL generation (Prickett et al. 2011 supra). At least 10,000 CD4^+ T cells were analyzed per sample and SI calculated as percentage of CD4^+CFSE^lo (proliferated) cells with antigen/percentage of CD4^+CFSE^lo cells without antigen (background). The detection threshold for a specific response in this assay was assessed by expanding peptide-specific TCL from proliferated CD4^+ cells over a range of SI values for three subjects. Specific TCL could be generated from divided T cells with SI as low as 1.1 in all three subjects (data not shown) allowing designation of an SI>1.1 as positive."}, "[2]": {"test_system": "basophils", "assay": "Basophil activation test (CD63 upregulation by flow cytometry)", "method": "Basophil activation was assessed by CD63 upregulation detected by flow cytometry as described (Drew et al. J Immunol. 2004; 173(9):5872-9). Positive controls were rabbit anti-human IgE antibody (7.5 ug/mL; DAKO Corporation, CA, USA), N-formyl-methionine-leucine-phenylalanine (fMLP) (0.4 ug/mL; Sigma) and CPE. CPE, Ara h 1 and peptides were tested over a 3-log concentration range (5, 0.5 and 0.05 ug/mL)"}, "[3]": {"test_system": "HLA-DR, HLA-DQ, HLA-DP", "assay": "HLA class II restriction of epitope recognition by TCL (blocking mAbs)", "conditions": "anti-HLA-DR, -DP or -DQ mAbs", "method": "as §1\nThere is no identified HLA-II association with peanut allergy (Shreffler et al. Ann Allergy Asthma Immunol 2006; 96(6):865-9), therefore peptides selected for therapy must bind diverse HLA-II molecules for wide applicability. To determine the HLA-II type presenting each epitope, anti-HLA-DR, -DP or -DQ mAbs were used to block individual epitope presentation to T cells. […] At least two subjects and/or TCL were tested per epitope (FIG. 8)."}},
  "note": "Entries after “also recorded” stand apart in the source; their conditions may differ. Where no end group is shown, it is not given here.",
  "data": [
    {"molecule": "FQNLQNHRIVQIEAKPNTLV [(206-225)]", "values": [
      {"measurement": "TCL stimulation / recognition (in words)", "setting": "[1]", "result": "efficiently stimulated TCL specific for either epitope"}
    ]},
    {"molecule": "NNFGKLFEVKPDKKNPQLQ [(409-427), NNFGKLFEVKPDKKNPQLQ]", "values": [
      {"measurement": "Basophil activation (percentage of activated CD63hi basophils)", "setting": "[2]", "result": 8, "unit": "%"}
    ]},
    {"molecule": "WSTRSSENNEGVIVKVSKE [(353-371)]", "values": [
      {"measurement": "HLA class II restriction (mAb that blocked epitope recognition)", "setting": "[3]", "result": "blocked by anti-HLA-DQ in both subjects tested"}
    ]},
    {"molecule": "ALMLPHFNSKAMVIVVVNKG [compound 50]", "values": [
      {"measurement": "Donor responder frequency for TCL recognition of Ara h 1 20-mer peptides", "setting": "[1]", "result": 33, "unit": "%"}
    ]},
    {"molecule": "VEIKEGALMLPHFNSKA (Chemcially synthezised) [(436-452)]", "values": [
      {"measurement": "HLA class II restriction (mAb that blocked epitope recognition)", "setting": "[3]", "result": "blocked by anti-HLA-DR for some TCL but by anti-HLA-DQ for others"}
    ]},
    {"molecule": "GDVFIMPAAHPVAINASS (Chemcially synthezised) [(507-524)]", "values": [
      {"measurement": "HLA class II restriction (mAb that blocked epitope recognition)", "setting": "[3]", "result": "blocked by anti-HLA-DR for some TCL but by anti-HLA-DQ for others; also recorded: HLA-DQ restricted"}
    ]},
    {"molecule": "KAMVIVVVNKGTGNLELVAV (Chemcially Synthezised) [compound 51]", "values": [
      {"measurement": "TCL stimulation / recognition (in words)", "setting": "[1]", "result": "efficiently stimulated TCL specific for either epitope"},
      {"measurement": "Donor responder frequency for TCL recognition of Ara h 1 20-mer peptides", "setting": "[1]", "result": 33, "unit": "%"}
    ]},
    {"molecule": "ALMLPHFNSKAMVIVVV (Chemcially synthezised) [(442-458)]", "values": [
      {"measurement": "HLA class II restriction (mAb that blocked epitope recognition)", "setting": "[3]", "result": "HLA-DR-restricted"}
    ]},
    {"molecule": "Ara h 1: major peanut allergen, 7S seed storage glycoprotein or vicilin, enriched from CPE by liquid chromatography (protein, listed as Homo sapiens) MRGRVSPLMLLLGILVLASVSATHAKSSPYQKKTENPCAQRCLQSCQQEPDDLKQKACESRCTKLEYDPRCVYDPRGHTGTTNQRSPPGERTRGRQPGDYDDDRRQPRREEGGRWGPAGPREREREEDWRQPREDWRRPSHQQPRKIRPEGREGEQEWGTPGSHVREETSRNNPFYFPSRRFSTRYGNQNGRIRVLQRFDQRSRQFQNLQNHRIVQIEAKPNTLVLPKHADADNILVIQQGQATVTVANGNNRKSFNLDEGHALRIPSGFISYILNRHDNQNLRVAKISMPVNTPGQFEDFFPASSRDQSSYLQGFSRNTLEAAFNAEFNEIRRVLLEENAGGEQEERGQRRWSTRSSENNEGVIVKVSKEHVEELTKHAKSVSKKGSEEEGDITNPINLREGEPDLSNNFGKLFEVKPDKKNPQLQDLDMMLTCVEIKEGALMLPHFNSKAMVIVVVNKGTGNLELVAVRKEQQQRGRREEEEDEDEEEEGSNREVRRYTARLKEGDVFIMPAAHPVAINASSELHLLGFGINAENNHRIFLAGDKDNVIDQIEKQAKDLAFPGSGEQVEKLIKNQKESHFVSARPQSQSQSPSSPEKESPEKEDQEEENQGGKGPLLSILKAFN", "values": [
      {"measurement": "Basophil activation (percentage of activated CD63hi basophils)", "setting": "[2]", "result": "80-90%"}
    ]}
  ]
}
